Patent publication US20260373134A1, “INHIBITORS OF DYRK1A” (Beth Israel Deaconess Medical Center, Inc., priority 2023, published 2026)
Read-outs that look alike come from different tables or passages of the source.

Columns and labels:
DYRK1A [1] = target: T1, DYRK1A (Homo sapiens, UniProt Q13627); assay: Kinase assay, % inhibition at fixed concentrations (Table 1b); format: binding; conditions: for inhibition at 10 µM: read-out: % inh at 10 μM
T1 construct: T7 phage (kinase-tagged T7 phage), or a DNA tag for qPCR if produced in HEK-293; made in house; host or cells: E. coli (BL21-derived, T7 phage) for most kinases, HEK-293 for the remaining ones
Description: (§1) Methods: a competitive binding assay was used as the primary screen to measure the binding affinity (KD) to DYRK1A. Selectivity against DYRK1B/2 as well as the related CLK1-4 was determined by comparison of the KD in each of the enzymes. Cellular activity of representative compounds was obtained by measuring the p-Tau levels in HEK293 cells expressing human full-length DYRK1A and Tau.
(§2) Kinase assays. For most assays, kinase-tagged T7 phage strains were prepared in an E. coli host derived from the BL21 strain. E. coli were grown to log-phase and infected with T7 phage and incubated with shaking at 32 °C until lysis. The lysates were centrifuged and filtered to remove cell debris. The remaining kinases were produced in HEK-293 cells and subsequently tagged with DNA for qPCR detection. Streptavidin-coated magnetic beads were treated with biotinylated small molecule ligands for 30 minutes at room temperature to generate affinity resins for kinase assays. The liganded beads were blocked with excess biotin and washed with blocking buffer (SeaBlock (Pierce), 1% BSA, 0.05% Tween 20, 1 mM DTT) to remove unbound ligand and to reduce non-specific binding. […] Test compounds were prepared as 111× stocks in 100% DMSO. Kas were determined using an 11-point 3-fold compound dilution series with three DMSO control points. All compounds for Kd measurements are distributed by acoustic transfer (non-contact dispensing) in 100% DMSO. The compounds were then diluted directly into the assays such that the final concentration of DMSO was 0.9%. All reactions performed in polypropylene 384-well plate. Each was a final volume of 0.02 mL. The assay plates were incubated at room temperature with shaking for 1 hour and the affinity beads were washed with wash buffer (1×PBS, 0.05% Tween 20). The beads were then re-suspended in elution buffer (1×PBS, 0.05% Tween 20, 0.5 μM non-biotinylated affinity ligand) and incubated at room temperature with shaking for 30 minutes. The kinase concentration in the eluates was measured by qPCR.

IL-17 = assay: T-cell inflammation inhibition assay (anti-CD3 stimulated PBMCs), IL-17; format: cell-based; conditions: Homo sapiens, PBMC, read-out: % inh at 5 μM IL17
Description: (§3) T-cell Inflammation Inhibition Assay Protocol: Day 1, High binding plates were coated with anti-CD3 (clone UCHT-1, 2 μg/mL) and isotype IgG1 using PBS 1× and incubated overnight at 4 °C. Day 2: Cryopreserved PBMCs were drip thawed and diluted to the appropriate density and seeded into U bottom 96-well polypropylene plates (1.2×10^5 cells per well) with 228 μL per well of culture medium (RPMI 1640, 10% heat-inactivated FBS, 1% penicillin/streptomycin, 2 mM L-glutamine). Cells were incubated at 37 °C, 5% CO2 for 1 hour prior to the addition of test compounds. Test compounds were solubilized in DMSO and further diluted to 20× with cell culture medium. Compounds were added to the PBMCs in volumes of 12 μL (1×) in triplicate and incubated for 1 hour at 37 °C, 5% CO2. For reference compound, 12 μL of dexamethasone (100 nM) was added to the control wells according to the plate map and incubated for 1 hour at 37 °C, 5% CO2. After 1 hour incubation, 200 μL of cells (1×10^5) treated with test compounds or controls were transferred to the anti-CD3 coated plates and incubated for 24 hours at 37 °C, 5% CO2, For positive and negative controls, transferred 200 μL (1×10^5) of cells to the coated plate with anti-CD3 or isotype IgG1. Plates were centrifuged at 200×g for 10 minutes. Cell culture supernatants were collected and stored at −80 °C until needed for analysis. Cytokine levels in each sample were determined using Luminex methodology, per the manufacturer's protocol, Luminex assessment of cytokine levels in cell culture supernatants in tissue culture medium, was performed per manufacturer's protocol using the Human Cytokine/Chemokine Magnetic bead panel from Millipore Sigma (catalogue No. HCYTOMAG-60K) with standards range 3.2, 16, 80, 400, 2,000, 10,000 pg/mL. Cytokines Measured: The following cytokines were measured for a complete cytokine response profile. Human panel, T cell (neat): IL-2, IL-17, […].

IL-2 = assay: T-cell inflammation inhibition assay (anti-CD3 stimulated PBMCs), IL-2; format: cell-based; conditions: Homo sapiens, PBMC, read-out: % inh at 5 μM IL2
Description: as §3

DYRK1A [2] = target: T1, DYRK1A; assay: Competitive binding assay, KD to DYRK1A
Description: as §1, §2

[3] = target: T2, Tau phosphorylation (human DYRK1A and Tau) in HEK293 cells (Homo sapiens, UniProt Q13627); assay: Kinase cellular assay: p-Tau levels in HEK293 cells expressing full-length human DYRK1A and Tau; format: cell-based; conditions: Table 1a
T2 construct: p-Tau ELISA
Description: as §1
Kinase Cellular Assay: HEK293 human embryonic kidney cells were transiently co-transfected with vectors encoding full-length human DYRK1A and Tau. Cells were dispensed into 96-well plates at a number previously determined by cell titration and signal optimization for the DYRK1A assay. Compounds were diluted to 200× final assay concentration in DMSO. Eight 3-fold or 4-fold serial dilutions were prepared for each compound in 100% DMSO. Compounds were then diluted in tissue culture medium to 10× final assay concentration and 5% DMSO. Compounds were added to the cells in 96-well plates (10-fold dilution in medium) for a final concentration of 1× compound and 0.5% DMSO. For positive (high signal) controls, cells were treated with 0.5% DMSO alone. For negative (low signal) controls, cells were treated with 20 μM harmine including 0.5% DMSO final concentration. Cells were incubated with compound at 37 °C for 2 hours. Cells were lysed, and lysates were transferred to an ELISA plate that had been previously coated with antibody to capture the substrate (human Tau). Plates were washed then incubated with an antibody to detect phosphorylation of Tau. Plates were washed then incubated with HRP-linked secondary antibody. Plates were washed, then HRP substrate was added. Absorbance was read at 450 nm. Percent inhibition values were calculated from absorbance readings based on positive and negative control values, and according to the following formula: (% INH=((positive control−sample)/(positive control−negative control))[…]. Z′ values were calculated based on the following formula: 1−[(3×standard deviation of positives+3×standard deviation of negatives)/(average positive−average negative)]. Percent inhibition values were plotted vs. the log of compound concentrations utilizing GraphPad Prism software. IC50s were determined after utilizing sigmoidal dose response curve fitting to generate the curves.

INFg = assay: T-cell inflammation inhibition assay (anti-CD3 stimulated PBMCs), IFN gamma; format: cell-based; conditions: Homo sapiens, PBMC, read-out: % inh at 5 μM INFg
Description: as §3

| Compound | inhibition at 10 µM (DYRK1A [1]) [%] | Kd (DYRK1A [2]; read-out: KD) [nM] | Kd (DYRK1A [2]; read-out: KD (bound)) [nM] | IC50 [3] [nM] | inhibition at 5 µM (IL-17) [%] | inhibition at 5 µM (IL-17; second value) [%] | inhibition at 5 µM (IL-2) [%] | inhibition at 5 µM (IL-2; second value) [%] | inhibition at 5 µM (INFg) [%] | other results |
| --- | --- | --- | --- | --- | --- | --- | --- | --- | --- | --- |
| COC(=O)Nc1nc2cc(OC)ccc2[nH]1 [Compound 17, Methyl (5-methoxy-1H-benzo[d]imidazol-2-yl)carbamate] | 69 | – | – | – | – | – | – | – | – | – |
| Cc1cc(-c2ccc3[nH]c(NC(=O)OCC4COC4)nc3c2)ccn1 [Compound 5, Oxetan-3-ylmethyl (5-(2-methylpyridin-4-yl)-1H-benzo[d]imidazol-2-yl)carbamate] | – | 0.33 | < 1 | 55 | 47.8 | 51.8 | 78.2 | 59.3 | 58.8 | inhibition at 5 µM (INFg; second value): 46% |
| O=C(Nc1nc2cc(-c3ccncc3)ccc2[nH]1)OCC1COC1 [Compound 10, Oxetan-3-ylmethyl (5-(pyridin-4-yl)-1H-benzo[d]imidazol-2-yl)carbamate] | – | – | – | 26 | 35 | 30.4 | 76.1 | 59.8 | 57.5 | inhibition at 5 µM (INFg; second value): 39.9% |
| COc1ccc2[nH]c(NC(=O)OCC3(C)COC3)nc2c1 [Compound 20, (3-Methyloxetan-3-yl)methyl (5-methoxy-1H-benzo[d]imidazol-2-yl)carbamate] | 96.4 | – | – | – | – | – | – | – | – | inhibition at 1 µM (DYRK1A [1]): 63% |
| O=C(Nc1nc2cc(-c3cccnc3)ccc2[nH]1)OCC1COC1 [Compound 7, Oxetan-3-ylmethyl (5-(pyridin-3-yl)-1H-benzo[d]imidazol-2-yl)carbamate] | – | – | – | – | – | – | 36.9 | 43.4 | 24.4 | – |
| Cc1cc(-c2ccc3[nH]c(NC(=O)OCC4(C)COC4)nc3c2)ccn1 [Compound 12, (3-methyloxetan-3-yl)methyl (5-(2-methylpyridin-4-yl)-1H-benzo[d]imidazol-2-yl)carbamate] | – | 0.14 | < 1 | – | – | – | – | – | – | – |
| Cc1cc(-c2ccc3[nH]c(NC(=O)NCC4(C)COC4)nc3c2)ccn1 [Compound 6, 1-((3-Methyloxetan-3-yl)methyl)-3-(5-(2-methylpyridin-4-yl)-1H-benzo[d]imidazol-2-yl)urea] | – | – | – | 827 | 9.3 | 7.3 | 38.9 | 35.8 | 30 | – |
| COc1ccc2[nH]c(N)nc2c1 [Compound 18, 5-Methoxy-1H-benzo[d]imidazol-2-amine] | 11 | – | – | – | – | – | – | – | – | – |

The next lines start with results.

| inhibition at 10 µM (DYRK1A [1]) [%] | Kd (DYRK1A [2]; read-out: KD) [nM] | Kd (DYRK1A [2]; read-out: KD (bound)) [nM] | IC50 [3] [nM] | Compound | inhibition at 5 µM (IL-17) [%] | inhibition at 5 µM (IL-17; second value) [%] | inhibition at 5 µM (IL-2) [%] | inhibition at 5 µM (IL-2; second value) [%] | inhibition at 5 µM (INFg) [%] | other results |
| --- | --- | --- | --- | --- | --- | --- | --- | --- | --- | --- |
| 69 | – | – | – | COc1ccc2[nH]c(NC(=O)OCc3cccc(F)c3)nc2c1 [Compound 21, 3-Fluorobenzyl (5-methoxy-1H-benzo[d]imidazol-2-yl)carbamate] | – | – | – | – | – | – |
| 100 | 0.17 | < 1 | 37 | CC1(COC(=O)Nc2nc3cc(-c4ccncc4)ccc3[nH]2)COC1 [Compound 1, (3-methyloxetan-3-yl)methyl (5-(pyridin-4-yl)-1H-benzo[d]imidazol-2-yl)carbamate] | – | – | – | – | – | inhibition at 1 µM (DYRK1A [1]): 100%; inhibition at 0.1 µM (DYRK1A [1]; read-out: % inh at 0.1 μM): 100% |
| 51 | – | – | – | COc1ccc2[nH]c(NC(=O)OCCN(C)C)nc2c1 [Compound 19, 2-(Dimethylamino)ethyl (5-methoxy-1H-benzo[d]imidazol-2-yl)carbamate] | – | – | – | – | – | – |
| – | 0.33 | < 1 | – | CC1(CNC(=O)Nc2nc3cc(-c4ccncc4)ccc3[nH]2)COC1 [Compound 11, 1-((3-Methyloxetan-3-yl)methyl)-3-(5-(pyridin-4-yl)-1H-benzo[d]imidazol-2-yl)urea] | – | – | – | – | – | – |
| – | 0.72 | < 1 | 280 | COC(=O)Nc1nc2cc(-c3ccnc(C)c3)ccc2[nH]1 [Compound 2, Methyl (5-(2-methylpyridin-4-yl)-1H-benzo[d]imidazol-2-yl)carbamate] | 22.8 | 35.9 | 46.5 | 42.3 | 31.4 | inhibition at 5 µM (INFg; second value): 11.5% |
